Test results published in PMC10250785, “Aromatic oligoesters as novel helix mimetic scaffolds” (Bioorganic & Medicinal Chemistry, 2023).

Key:
[1] = Aqueous stability of dimers in buffered pH solutions (TLC, LCMS/HPLC UV); assay type: physicochemical; settings: r.t.; for remaining at 168 h, 5 mg/mL: bicarbonate buffer pH 12.5 / acetonitrile (1:1), pH 12.5 (bicarbonate) buffer, 50% MeCN: buffer, 5 mg/mL dimer, after 7 days, from HPLC UV traces
Description: Human serum pH is tightly regulated around 7.4, with intracellular pH controlled between pH 6.0–7.2, and gastric pH between 1.4–3.5.[37] […] Given the prevalence of ester linkages in pro-drug structures[38] and the facile hydrolysis of esters in aqueous media, the stability of our scaffold was a concern. We therefore investigated the stability of dimers 25 and 29 over extended periods of time in aqueous solution from pH2.5–12.5. To monitor dimer stability over time, 10 mM pH buffer solutions of: 2.5(acetate), 5.0(acetate), 7.4 (phosphate-buffered saline), 10.0 (bicarbonate), and 12.5 (bicarbonate) were selected, to obtain a pH range similar to those present within the human body. Since both dimers are insoluble in water, they were firstly dissolved in acetonitrile, before addition to the buffered solutions to form a 5 mg/mL dimer solution (50% MeCN: buffer). Degradation was monitored via TLC over time, and the final solution composition was determined by LCMS after 7 days (Fig 3 and Figure S3).
Fig. 3 Dimers 25 and 29 were incubated for 7 days in a range of buffered pH solutions and % dimer remaining measured by integration of UV peaks from an HPLC Diode array trace.
To pre-prepared 100 mM pH buffer solutions (1.00 mL), including pH 2.5, 5.0, 7.4, 10.0 and 12.5 (Table 2), was added the dimer (10 mg/mL in MeCN) at r.t, forming a final solution with dimer concentration 5 mg/mL. The mixture was stirred at r.t. for 7 days and monitored via TLC and LCMS (50% MeCN) to follow ester bond degradation.

SMILES	melting point	remaining at 168 h, 5 mg/mL [1]	time before ester hydrolysis occurs ([1]; pH 12.5, 50% MeCN: buffer)
C=CCOc1ccc(C(=O)OC)cc1O [Compound 1, Methyl 4-(allyloxy)-3-hydroxybenzoate]	67 to 68 °C		
C=CCOc1ccc(C(=O)Oc2ccc(C(=O)OC)cc2OC(C)C)cc1OC(C)C [Compound 25, 2-isopropoxy-4-(methoxycarbonyl)phenyl 4-(allyloxy)-3-isopropoxybenzoate]		6%	> 5 days
COC(=O)c1ccc(OC(=O)c2ccc(O)c(OC)c2)c(OC)c1 [Compound 29, 2-methyoxy-4-(methoxycarbonyl)phenyl 4-hydroxy-3-methoxybenzoate]		49%	
